Each structure is given as a SMILES string.

A short description of data set [1]: absorption spectrum (maximum absorption wavelength, molar extinction coefficient). Type of data set: physicochemical.
Data set [2] in a line: singlet oxygen efficiency test, reference rose bengal. Type of data set: physicochemical.

As for `COc1c2c3c4c(c(NCCCC(=O)O)c(=O)c5c(O)cc(OC)c(c6c(OC)cc(NCCCC(=O)O)c(c1=O)c63)c54)C=C(C)C2` [HC-8d], in data set [1], the maximum absorption wavelength was found to be 623 nm and the molar extinction coefficient is 27,000 M^−1cm^−1. Besides, in data set [2], the singlet oxygen yield worked out at 26%.

With `COCCOC(=O)CCCCCNc1c(NCCCCCC(=O)OCCOC)c2c(=O)cc(OC)c3c4c(OC)cc(=O)c5c(O)c(OC)c6c(c(c1C=C(C)C6)c23)c54` [HC-9a-PEG1], in data set [1], the maximum absorption wavelength is 621 nm and the molar extinction coefficient was 30,000 M^−1cm^−1. Also, the singlet oxygen yield in data set [2] is 32%.

`COc1c(O)c2c(=O)cc(OC)c3c4c(OC)cc(=O)c5c(NCCCCCC(=O)O)c(NCCCCCC(=O)O)c6c(c(c1CC(C)=C6)c23)c54` [HC-9a]: in data set [1], the maximum absorption wavelength was determined as 620 nm and the molar extinction coefficient is listed as 26,500 M^−1cm^−1. For the same compound, the singlet oxygen yield in data set [2] worked out at 26%.

Consider `COCCOCCOCCOCCOCCOCCOC(=O)CCCCCNc1c(O)c2c(=O)cc(OC)c3c4c(OC)cc(=O)c5c(NCCCCCC(=O)OCCOCCOCCOCCOCCOCCOC)c(OC)c6c(c(c1C=C(C)C6)c23)c54` [HC-9b-PEG6], for which, in data set [1], the maximum absorption wavelength turned out to be 622 nm and the molar extinction coefficient was 30,500 M^−1cm^−1. Further, in data set [2], the singlet oxygen yield is on record as 30%.

With `COc1c(NCCCCCC(=O)O)c2c(=O)cc(OC)c3c4c(OC)cc(=O)c5c(O)c(NCCCCCC(=O)O)c6c(c(c1CC(C)=C6)c23)c54` [HC-9b], in data set [1], the maximum absorption wavelength stood at 622 nm and the molar extinction coefficient is given as 27,500 M^−1cm^−1. The same compound had a singlet oxygen yield in data set [2] of 24%.

Regarding `COCCOCCOCCOCCOCCOCCOC(=O)CCCCCNc1c2c3c4c(c(OC)c(=O)c5c(O)cc(OC)c(c6c(OC)cc(NCCCCCC(=O)OCCOCCOCCOCCOCCOCCOC)c(c1=O)c63)c54)CC(C)=C2` [HC-9c-PEG6], in data set [1], the maximum absorption wavelength worked out at 628 nm and the molar extinction coefficient was 33,000 M^−1cm^−1. In data set [2], this compound came in with a singlet oxygen yield of 36%.

Turning to `COc1c2c3c4c(c(NCCCCCC(=O)O)c(=O)c5c(NCCCCCC(=O)O)cc(OC)c(c6c(OC)cc(O)c(c1=O)c63)c54)C=C(C)C2` [HC-9c], in data set [1], the maximum absorption wavelength turned out to be 628 nm and the molar extinction coefficient is reported as 27,000 M^−1cm^−1. Further, the singlet oxygen yield in data set [2] amounted to 29%.

With `COCCOCCOCCOCCOCCOCCOCCOCCOCCOCCOCCOCCOC(=O)CCCCCNc1c2c3c4c(c(OC)c(=O)c5c(NCCCCCC(=O)OCCOCCOCCOCCOCCOCCOCCOCCOCCOCCOCCOCCOC)cc(OC)c(c6c(OC)cc(O)c(c1=O)c63)c54)CC(C)=C2` [HC-9d-PEG12], in data set [1], the maximum absorption wavelength is on record as 625 nm and the molar extinction coefficient is 31,500 M^−1cm^−1. Further, the singlet oxygen yield in data set [2] came out at 32%.

With `COc1c2c3c4c(c(NCCCCCC(=O)O)c(=O)c5c(O)cc(OC)c(c6c(OC)cc(NCCCCCC(=O)O)c(c1=O)c63)c54)C=C(C)C2` [HC-9d], in data set [1], the maximum absorption wavelength is 624 nm and the molar extinction coefficient is 25,000 M^−1cm^−1. Also, the singlet oxygen yield in data set [2] is 26%.

For the compound `COc1c(O)c2c(=O)cc(OC)c3c4c(OC)cc(=O)c5c(NCC6CCC(C(=O)OCC[N+](C)(C)C)CC6)c(NCC6CCC(C(=O)OCC[N+](C)(C)C)CC6)c6c(c(c1CC(C)=C6)c23)c54` (stereo not drawn) [HC-13a-C2-N^+], in data set [1], the maximum absorption wavelength is listed as 622 nm and the molar extinction coefficient is recorded as 30,500 M^−1cm^−1. In data set [2], this compound registered a singlet oxygen yield of 30%.

As for `COc1c(O)c2c(=O)cc(OC)c3c4c(OC)cc(=O)c5c(NCC6CCC(C(=O)NCCS(=O)(=O)O)CC6)c(NCC6CCC(C(=O)NCCS(=O)(=O)O)CC6)c6c(c(c1CC(C)=C6)c23)c54` (stereo not drawn) [HC-13a-C2-SO3H], in data set [1], the maximum absorption wavelength amounted to 622 nm and the molar extinction coefficient was 31,000 M^−1cm^−1. Besides, the singlet oxygen yield in data set [2] is on record as 32%.

As to `COCCOCCNC(=O)C1CCC(CNc2c(NCC3CCC(C(=O)NCCOCCOC)CC3)c3c(=O)cc(OC)c4c5c(OC)cc(=O)c6c(O)c(OC)c7c(c(c2C=C(C)C7)c34)c65)CC1` (stereo not drawn) [HC-13a-NH-PEG1], in data set [1], the maximum absorption wavelength stood at 624 nm and the molar extinction coefficient is recorded as 30,000 M^−1cm^−1. In addition, the singlet oxygen yield in data set [2] was 32%.

As for `COCCOC(=O)C1CCC(CNc2c(NCC3CCC(C(=O)OCCOC)CC3)c3c(=O)cc(OC)c4c5c(OC)cc(=O)c6c(O)c(OC)c7c(c(c2C=C(C)C7)c34)c65)CC1` (stereo not drawn) [HC-13a-PEG1], in data set [1], the maximum absorption wavelength is listed as 622 nm and the molar extinction coefficient is listed as 30,000 M^−1cm^−1. The compound further returned a singlet oxygen yield in data set [2] of 32%.

As for `COc1c(NCC2CCC(C(=O)OCCCC[N+](C)(C)C)CC2)c2c(=O)cc(OC)c3c4c(OC)cc(=O)c5c(O)c(NCC6CCC(C(=O)OCCCC[N+](C)(C)C)CC6)c6c(c(c1CC(C)=C6)c23)c54` (stereo not drawn) [HC-13b-C4-N^+], in data set [1], the maximum absorption wavelength came out at 624 nm and the molar extinction coefficient is listed as 31,500 M^−1cm^−1. In data set [2], the singlet oxygen yield is 36%.

In the case of `COc1c(NCC2CCC(C(=O)NCCCCS(=O)(=O)O)CC2)c2c(=O)cc(OC)c3c4c(OC)cc(=O)c5c(O)c(NCC6CCC(C(=O)NCCCCS(=O)(=O)O)CC6)c6c(c(c1CC(C)=C6)c23)c54` (stereo not drawn) [HC-13b-C4-SO3H], in data set [1], the maximum absorption wavelength is given as 622 nm and the molar extinction coefficient is 30,000 M^−1cm^−1. The singlet oxygen yield in data set [2] stood at 32%.

Consider `COCCOCCOCCOCCOCCNC(=O)C1CCC(CNc2c(O)c3c(=O)cc(OC)c4c5c(OC)cc(=O)c6c(NCC7CCC(C(=O)NCCOCCOCCOCCOCCOC)CC7)c(OC)c7c(c(c2C=C(C)C7)c34)c65)CC1` (stereo not drawn) [HC-13b-NH-PEG4], for which, in data set [1], the maximum absorption wavelength worked out at 624 nm and the molar extinction coefficient is recorded as 30,000 M^−1cm^−1. This compound came in with a singlet oxygen yield in data set [2] of 32%.

On to `COc1c(NCC2CCC(C(=O)NCCCC[P+](c3ccccc3)(c3ccccc3)c3ccccc3)CC2)c2c(=O)cc(OC)c3c4c(OC)cc(=O)c5c(O)c(NCC6CCC(C(=O)NCCCC[P+](c7ccccc7)(c7ccccc7)c7ccccc7)CC6)c6c(c(c1CC(C)=C6)c23)c54` (stereo not drawn) [HC-13b-NH—C4-PPh3+], for which, in data set [1], the maximum absorption wavelength was 626 nm and the molar extinction coefficient is 30,500 M^−1cm^−1. In data set [2], this compound yielded a singlet oxygen yield of 34%.

With `COCCOCCOCCOCCOC(=O)C1CCC(CNc2c(O)c3c(=O)cc(OC)c4c5c(OC)cc(=O)c6c(NCC7CCC(C(=O)OCCOCCOCCOCCOC)CC7)c(OC)c7c(c(c2C=C(C)C7)c34)c65)CC1` (stereo not drawn) [HC-13b-PEG4], in data set [1], the maximum absorption wavelength is 624 nm and the molar extinction coefficient is reported as 30,000 M^−1cm^−1. The compound further registered a singlet oxygen yield in data set [2] of 32%.

Turning to `COc1c2c3c4c(c(NCC5CCC(C(=O)NCCCCCCS(=O)(=O)O)CC5)c(=O)c5c(NCC6CCC(C(=O)NCCCCCCS(=O)(=O)O)CC6)cc(OC)c(c6c(OC)cc(O)c(c1=O)c63)c54)C=C(C)C2` (stereo not drawn) [HC-13c-C6-SO3H], in data set [1], the maximum absorption wavelength is listed as 630 nm and the molar extinction coefficient is on record as 33,000 M^−1cm^−1. Also, the singlet oxygen yield in data set [2] was found to be 36%.

Consider `COc1c2c3c4c(c(NCC5CCC(C(=O)NCCCCCC[P+](c6ccccc6)(c6ccccc6)c6ccccc6)CC5)c(=O)c5c(NCC6CCC(C(=O)NCCCCCC[P+](c7ccccc7)(c7ccccc7)c7ccccc7)CC6)cc(OC)c(c6c(OC)cc(O)c(c1=O)c63)c54)C=C(C)C2` (stereo not drawn) [HC-13c-NH—C6-PPh3+], for which, in data set [1], the maximum absorption wavelength worked out at 632 nm and the molar extinction coefficient is recorded as 33,500 M^−1cm^−1. In addition, the singlet oxygen yield in data set [2] is on record as 38%.

`COCCOCCOCCOCCOC(=O)C1CCC(CNc2c3c4c5c(c(OC)c(=O)c6c(O)cc(OC)c(c7c(OC)cc(NCC8CCC(C(=O)OCCOCCOCCOCCOC)CC8)c(c2=O)c74)c65)CC(C)=C3)CC1` (stereo not drawn) [HC-13c-PEG4]: in data set [1], the maximum absorption wavelength is 632 nm and the molar extinction coefficient is reported as 31,500 M^−1cm^−1. The compound further gave a singlet oxygen yield in data set [2] of 36%.

`COCCOCCOCCOCCOCCOCCOCCOCCOC(=O)C1CCC(CNc2c3c4c5c(c(OC)c(=O)c6c(O)cc(OC)c(c7c(OC)cc(NCC8CCC(C(=O)OCCOCCOCCOCCOCCOCCOCCOCCOC)CC8)c(c2=O)c74)c65)CC(C)=C3)CC1` (stereo not drawn) [HC-13c-PEG8]: in data set [1], the maximum absorption wavelength was 628 nm and the molar extinction coefficient was 32,500 M^−1cm^−1. In addition, in data set [2], the singlet oxygen yield was 38%.

Turning to `COc1c2c3c4c(c(NCC5CCC(C(=O)NCCCCS(=O)(=O)O)CC5)c(=O)c5c(O)cc(OC)c(c6c(OC)cc(NCC7CCC(C(=O)NCCCCS(=O)(=O)O)CC7)c(c1=O)c63)c54)C=C(C)C2` (stereo not drawn) [HC-13d-C4-SO3H], in data set [1], the maximum absorption wavelength was found to be 624 nm and the molar extinction coefficient was 31,000 M^−1cm^−1. Further, the singlet oxygen yield in data set [2] turned out to be 30%.

With `COCCOCCOCCOCCOCCOCCOCCOCCOCCNC(=O)C1CCC(CNc2c3c4c5c(c(OC)c(=O)c6c(NCC7CCC(C(=O)NCCOCCOCCOCCOCCOCCOCCOCCOCCOC)CC7)cc(OC)c(c7c(OC)cc(O)c(c2=O)c74)c65)CC(C)=C3)CC1` (stereo not drawn) [HC-13d-NH-PEG8], in data set [1], the maximum absorption wavelength came to 625 nm and the molar extinction coefficient is 32,500 M^−1cm^−1. For the same compound, the singlet oxygen yield in data set [2] was determined as 30%.

Consider `COc1c2c3c4c(c(NCC5CCC(C(=O)NCCCC[P+](c6ccccc6)(c6ccccc6)c6ccccc6)CC5)c(=O)c5c(O)cc(OC)c(c6c(OC)cc(NCC7CCC(C(=O)NCCCC[P+](c8ccccc8)(c8ccccc8)c8ccccc8)CC7)c(c1=O)c63)c54)C=C(C)C2` (stereo not drawn) [HC-13d-NH—C4-PPh3+], for which, in data set [1], the maximum absorption wavelength came to 618 nm and the molar extinction coefficient was 31,500 M^−1cm^−1. The singlet oxygen yield in data set [2] stood at 30%.

As for `COCCOCCOCCOCCOCCOCCOCCOCCOCCOCCOCCOCCOCCOCCOCCOCCOC(=O)C1CCC(CNc2c3c4c5c(c(OC)c(=O)c6c(NCC7CCC(C(=O)OCCOCCOCCOCCOCCOCCOCCOCCOCCOCCOCCOCCOCCOCCOCCOCCOC)CC7)cc(OC)c(c7c(OC)cc(O)c(c2=O)c74)c65)CC(C)=C3)CC1` (stereo not drawn) [HC-13d-PEG16], in data set [1], the maximum absorption wavelength worked out at 625 nm and the molar extinction coefficient was 31,500 M^−1cm^−1. The compound further gave a singlet oxygen yield in data set [2] of 30%.

On to `COc1c2c3c4c(c(NCCC5CCC(O)CC5)c(=O)c5c(O)cc(OC)c(c6c(OC)cc(NCCC7CCC(O)CC7)c(c1=O)c63)c54)C=C(C)C2C(C)=O` (stereo not drawn) [HC-18d], for which, in data set [1], the maximum absorption wavelength was 622 nm and the molar extinction coefficient is 23,500 M^−1cm^−1. In data set [2], the singlet oxygen yield is listed as 20%.

For the origin of these results see patent US11439707B2, “Hypocrellin derivative substituted both in a peri-position and in 2-position by amino, preparation method, and application thereof” (priority 2017, dated 2022).
